In patent publication US4225595A, “Piperazine phosphates and phosphonate insecticides” (priority 1979, dated 1980):

Experiments:
[1] = system: Housefly [Musca domestica (Linn.)]; conditions: topical, 48 h
Experimental: Housefly [Musca domestica (Linn.)], (HF)--Contact Residue Assay
Test compounds were diluted in acetone and aliquots were pipetted onto the bottom of 55×15 millimeter (mm) aluminum dishes. One ml of acetone containing 0.02% peanut oil was added to each dish to insure even spreading. After all solvents had evaporated the dishes were placed in cages each containing 25 one to two day old female houseflies. Each cage contained a sugar-water cotton plug for sustanence of the flies.
Mortality rates were recorded after 48 hours. Test levels ranged from 10 μ/25 .female. houseflies down to that at which approximately 50% mortality occurs.

[2] = system: Two-Spotted Mite [Tetranychus urticae (Koch)]; test: Two-Spotted Mite (2SM) plant dip assay, mortality seven days later; format: in vivo
From the text: (§1) Screening was initiated at a maximal concentration level believed to be injurious to the insect population. The initial level should not be understood as representing a maximum at which a viable test for insecticidal activity can be conducted. […]
Pinto bean plants (Phaseolus vulgaris) approximately 10 cm high were transplanted into sandy loam soil in three-inch clay pots. The plants were thoroughly infested with two-spotted mites of mixed ages and sexes. Twenty-four hours after infestation the plants were inverted and dipped for 2-3 seconds in 50--50 acetone-water solutions of the test compounds.
Mortality ratings for both adult mites and nymphs hatching after treatment were taken seven days later. Test concentrations ranged from 0.05% down to that at which 50% mortality occurs.
(§2) A less than 50% mortality rate at the initial concentration is indicated by a "greater than" sign (>). An approximately 50% mortality rate is indicated by the initial concentration rate. Other results are the dilutions at which an LD50 was achieved.

[3] = system: Cabbage Looper [Trichoplusia ni (Hubner)]; test: Cabbage Looper (CL) leaf dip assay; format: in vivo; conditions: squash cotyledons, initial 0.1%
Experimental: (§3) Screening was initiated at a maximal concentration level believed to be injurious to the insect population. The initial level should not be understood as representing a maximum at which a viable test for insecticidal activity can be conducted.
(§4) Test compounds were diluted in a 50--50 acetone-water solution. Approximately 1×1.5 inch sections of curly dock (Rumex crispus) leaves were immersed in the test solution for 2-3 seconds. After drying on a wire screen, the leaves were placed in petri dishes containing a moistened piece of filter paper. Each dish was infested with 5 secondinstar saltmarsh larvae.
(§5) Mortality of the larvae was recorded 48 hours later. A piece of synthetic media was added to the dishes containing surviving larvae. The larvae were then observed for 5 additional days for delayed effects of the test compounds. Test concentrations ranged from 0.05% down to that at which approximately 50% mortality occurs. Cabbage Looper [Trichoplusia ni (Hubner)], (CL)
The effectiveness of the compounds was tested in the same manner as for the saltmarsh caterpillar with two exceptions. Cotyledons of hyzini squash (Calabacita abobrinha, were substituted for curly dock leaves and the initial test concentration was 0.1%. Tobacco Budworm [Heliothis virescens (Fabricius)], (TBW)
as §2

[4] = system: German Cockroach [Blatella germanica (Linne)]; test: German Cockroach (GR) direct spray, mortality 7 days later; format: in vivo; conditions: one-month-old nymphs, initial 0.1%
Experimental: as §3
(§6) Mobile insects, such as houseflies, German cockroaches, Lygus bugs, were contained for treatment in circular cardboard cages covered with cellophane on the bottom and tulle netting on the top.
(§7) The insecticidal properties were tested in the same manner as for black beam aphids with the substitution of the nasturtiums by radish plants, Rhaphanus sativus. German Cockroach [Blatella germanica (Linne)], (GR)--Direct Spray
(§8) Test compounds were diluted in a 50--50 acetonewater solution. Two cubic centimeters (cc) of the compound solutions were sprayed through a DeVilbiss type EGA hand spray gun into cages each containing 10 one-month-old German cockroach nymphs.
The percent mortality was recorded 7 days later. Test concentrations ranged from 0.1% down to that at which approximately 50% mortality occurs.
as §2

[5] = system: Black Bean Aphid [Aphis fabae (Scop.)]; test: Black Bean Aphid (BBA) plant spray assay, mortality after three days; format: in vivo; conditions: spray on infested nasturtium plants
From the text: as §1
(§9) Nasturtium plants, Tropaeolum sp., approximately five centimeters (cm) high were transplanted into sandy loam soil in three-inch clay pots. Each pot was infested with 25-50 black bean aphids of mixed ages. Twenty-four hours later the pots were sprayed to the point of run-off with 50--50 acetone-water solutions of the test compounds.
(§10) Mortality rates were recorded after the infested plants had been held in the greenhouse for three days. Test concentrations ranged from 0.05% down to that at which 50% mortality occurs. Green Peach Aphid [Myzus persicae (Sulzer)], (GPA)
as §2

[6] = system: Southern House Mosquito Larvae (Culex pipiens quinquefasciatus); test: Southern House Mosquito larvae (M) assay, mortality 48 hours after treatment; format: in vivo; conditions: third-instar larvae in aqueous solution, initial 1 ppm, read-out: LD50 M
Experimental: as §3
Tobacco budworms were tested in the same manner as the cabbage looper. Romaine lettuce (Latuca sativa) leaves provided the substrate. Southern House Mosquito Larvae (Culex pipiens quinquefasciatus), (M)
Ten third-instar larvae were placed in a six ounce wax paper cup containing 100 ml of an aqueous solution of the test compounds at a concentration of 1 ppm. The treated larvae were stored at 70° F. (21.5° C.) and mortality was recorded 48 hours after treatment. Two-Spotted Mite [Tetranychus urticae (Koch)], (2SM)
as §2

[7] = system: Green Peach Aphid [Myzus persicae (Sulzer)]; test: Green Peach Aphid (GPA) plant spray assay; format: in vivo; conditions: spray on infested radish plants, three days
From the text: as §3, §9, §10, §7, §2

[8] = system: Lygus Bug [Lygus hesperus (Knight)]; test: Lygus Bug (LB) direct spray assay, mortality 48 hours later; format: in vivo; conditions: adults, initial 0.05%
Experimental: as §3, §6, §8
Lygus Bug [Lygus hesperus (Knight)], (LB)--Direct Spray Assay
(§11) The species was treated in the same manner as the German cockroach. The cages contained one string beam pod and 10 adult Lygus bugs. The percent mortality was recorded 48 hours later. Test concentrations ranged from 0.05% down to that at which approximately 50% mortality occurs. Saltmarsh Caterpillar [Estigmene acrea (Drury)], (SMC)--Leaf Dip Assay
as §2

[9] = system: Tobacco Budworm [Heliothis virescens (Fabricius)]; conditions: leaf dip, Romaine lettuce leaves
Experimental: Mortality of the larvae was recorded 48 hours later. A piece of synthetic media was added to the dishes containing surviving larvae. […] Test concentrations ranged from 0.05% down to that at which approximately 50% mortality occurs.

[10] = system: Saltmarsh Caterpillar [Estigmene acrea (Drury)]; test: Saltmarsh Caterpillar (SMC) leaf dip assay; format: in vivo; conditions: curly dock leaves, second-instar larvae, 48 hours + 5 days
Experimental: as §3, §11, §4, §5, §2

CCOP(=O)(OCC)SCC(=O)N1CCN(C(=O)SC)CC1 [Compound 28, 1-N-methylthiocarbo-4-N-O,O-diethylphosphoromonothioylacetyl piperazine]
LD50 HF [1]: > 10 μg/25
LD50 2SM Adults ([2]; adult mites): < .05%
LD50 2SM Eggs ([2]; eggs (nymphs hatching after treatment)): < .05%
LD50 CL [3]: > .1%
LD50 GR [4]: > .1%
LD50 BBA [5]: .0002%
LC50 [6]: > 1 µg/mL
LD50 GPA [7]: .008%
LD50 LB [8]: > .05%
LD50 TBW [9]: > .1%
LD50 SMC [10]: > .05%
